Results taken from article doi:10.1101/2024.08.19.608619, “Discovery of potent SARS-CoV-2 nsp3 macrodomain inhibitors uncovers lack of translation to cellular antiviral response” (bioRxiv, 2024).
≈ marks a conversion by molar mass, not a printed value. Where “and” joins values, the source holds several entries; their conditions need not be identical. Equal values may be shown once. Read-outs that look alike come from different tables or passages of the source.

Key:
[1] = test system: SARS-CoV-2, isolate USA-WA1/2020; assay: microbe, parasite or virus in culture; assay type: cell-based; conditions: HeLa-ACE2 SARS-CoV-2 antiviral effect without P-gp inhibitor; for perc_max_measured: maximum measured response of dose series; for perc_min_measured: minimum measured response of dose series; for EC50: read-out: ec50; for EC90: read-out: ec90
SARS-CoV-2 = assay: Antiviral effect in iPSC-derived pneumocyte system; assay type: cell-based; conditions: iPSC pneumocytes SARS-CoV-2 antiviral effect; for perc_max_measured: maximum measured response of dose series; for perc_min_measured: minimum measured response of dose series
[2] = Hepatic microsomal stability, HLM; assay type: in vitro ADME, human; conditions: In vitro human liver microsomal stability; for perc_remaining_no_cofactor: no cofactor
[3] = Hepatic microsomal stability, MLM; assay type: in vitro ADME
iPSC pneumocytes = iPSC pneumocytes cytotoxicity; assay type: cell-based; conditions: for perc_max_measured: highest measured response of the dose series; for perc_min_measured: lowest measured response of the dose series
Text: Supplement media-1.zip/Cytotoxicity.csv, table | column: cc10; cc50; perc_min_measured; perc_max_measured

HeLa-ACE2 cells = conditions: protocol HeLa-ACE2 cytotoxicity; for perc_max_measured: highest measured response of the dose series; for perc_min_measured: lowest measured response of the dose series
LogD = conditions: pH 7.4; In vitro LogD
in vitro [4] = assay: in vitro; parameters: Cytotoxicity in iPSC-derived pneumocytes, CC50; conditions: human, ipsc-derived pneumocytes, read-out: 50.0
Text: Finally, we consider the hypothesis that interferon response triggers ADP-ribosylation, thus profiling the compounds in enhanced and physiologically relevant interferon environments could reveal detectable antiviral effects. […] Furthermore, HeLa-ACE2 cells, and all cancerous cell lines, display defective innate immune response ([1]). As such, we also assess our compound in a primary-like iPSC-derived pneumocyte system (Figure 7C), showing likewise a lack of antiviral activity in this physiologically relevant innate immunity system.

in vitro [5] = conditions: human, hela-ace2 cells, 50.0
[6] = In vitro kinetic solubility; conditions: In vitro kinetic solubility, ph 7.4
[7] = Permeability Papp (AB) MDR1/MDCKII; conditions: for papp_a_to_b_mean / perc_recovery_a_to_b_mean / papp_b_to_a_mean / efflux_ratio / perc_recovery_b_to_a_mean: In vitro MDR1-MDCKII permeability; for papp_a_to_b_mean: A to B; for perc_recovery_a_to_b_mean / perc_recovery_a_to_b_inhibitor_mean: recovery A to B; for papp_b_to_a_mean: B to A; for perc_recovery_b_to_a_mean / perc_recovery_b_to_a_inhibitor_mean: recovery B to A; for perc_recovery_a_to_b_inhibitor_mean / perc_recovery_b_to_a_inhibitor_mean: MDR1-MDCKII
[8] = In vitro mouse liver microsomal stability
[9] = In vitro mouse liver microsomal stability, no cofactor
[10] = protocol iPSC pneumocytes cytotoxicity

SMILES	perc_max_measured [1] [%]	perc_min_measured [1] [%]	EC50 [1] [µM]	EC90 [1] [µM]	EC50 (SARS-CoV-2) [µM]	EC90 (SARS-CoV-2) [µM]	perc_max_measured (SARS-CoV-2) [%]	perc_min_measured (SARS-CoV-2) [%]	clint [2] [µL/min/mg]	perc_remaining [2] [%]	t_half [2] [min]	perc_remaining_no_cofactor [2] [%]	clint [3, 8] [µL/min/mg]	perc_remaining [3, 8] [%]	t_half [3, 8] [min]	CC50 (HeLa-ACE2 cells) [µM]	cc10 (HeLa-ACE2 cells) [µM]	perc_max_measured (HeLa-ACE2 cells) [%]	perc_min_measured (HeLa-ACE2 cells) [%]	logd (LogD)	further results
CC(C)(C)[C@@H](Nc1ncnc2[nH]c(-c3cnn(CC(N)=O)c3)cc12)c1ccc2c(n1)OCCO2 [ASAP-0011162]	115.43	93.464	> 20	> 20	11.4	> 50	91.919	11.328	42.0	49.0	39.8	107.0	30.0	59.0	56.2	> 20	> 20.0	99.27	66.005	2.9	perc_remaining_no_cofactor [3, 9]: 109.0%; CC50 (iPSC pneumocytes): > 50 µM; cc10 (iPSC pneumocytes): > 50.0 µM; perc_max_measured (iPSC pneumocytes): 104.975%; perc_min_measured (iPSC pneumocytes): 91.59%; CC50 (in vitro [4]; ASAP-0008327-001=ASAP-0011162-001): > 50 µM; CC50 at 24 h (in vitro [5]): > 20 µM; solubility_mean [6]: 390 µM (≈ 180 µg/mL); papp_a_to_b_mean ([7]; mean): 1.53 ×10⁻⁶ cm/s; perc_recovery_a_to_b_mean ([7]; mean): 75.9%
CNC(=O)c1cc2c(N[C@@H](c3ccc4c(c3)OCCO4)C(C)C)ncnc2[nH]1 [ASAP-0008348]	114.293	64.264	> 50	> 50	> 50	> 50	153.61	91.144	79.0	23.0	21.1	92.0	55.0	43.0	30.5	> 50	> 50.0	108.404	99.225	2.76	perc_remaining_no_cofactor ([3]; In vitro mouse liver microsomal stability; no cofactor): 112.0%; CC50 (iPSC pneumocytes; [10]): > 50 µM; cc10 (iPSC pneumocytes; [10]): > 50.0 µM; perc_max_measured (iPSC pneumocytes; [10]): 98.804%; perc_min_measured (iPSC pneumocytes; [10]): 52.012%; CC50 (in vitro [4]; ASAP-0008327-001=ASAP-0008348-001): > 50 µM; CC50 at 24 h (in vitro [5]): > 50 µM; solubility_mean [6]: 380 µM (≈ 145 µg/mL); papp_a_to_b_mean ([7]; mean): 1.96 ×10⁻⁶ cm/s; perc_recovery_a_to_b_mean ([7]; mean): 86.8%
CC(C)[C@@H](Nc1ncnc2[nH]c(-c3cnn(C)c3)cc12)c1ccc2c(c1)S(=O)(=O)CCC2 (single isomer, unassigned) [ASAP-0012329]	119.22	72.714	> 20	> 20	7.59	> 50	103.795	0.206	405.0	0.0	4.1	105.0	140.0	10.0	11.9	> 20	> 20.0	91.281	71.036	3.2	perc_remaining_no_cofactor [3, 9]: 102.0%; CC50 (iPSC pneumocytes): > 50 µM; cc10 (iPSC pneumocytes): 30.402 µM; perc_max_measured (iPSC pneumocytes): 108.573%; perc_min_measured (iPSC pneumocytes): 85.97%; CC50 (in vitro [4]; ASAP-0008327-001=ASAP-0012329-001): > 50 µM; CC50 at 24 h (in vitro [5]): > 20 µM; solubility_mean [6]: 111 µM (≈ 50 µg/mL); papp_b_to_a_mean ([7]; no inhibitor): 3.9 ×10⁻⁶ cm/s and 5.0 ×10⁻⁶ cm/s; efflux_ratio ([7]; no inhibitor): 40.3 and 73.5; perc_recovery_a_to_b_mean ([7]; no inhibitor): 72.3% and 98.8% and 68.0%; perc_recovery_b_to_a_mean ([7]; no inhibitor): 79.2% and 106.0%; perc_recovery_a_to_b_inhibitor_mean ([7]; with inhibitor Cyclosporin A): 77.4%; perc_recovery_a_to_b_inhibitor_mean ([7]; with inhibitor Verapamil): 104.0%; perc_recovery_b_to_a_inhibitor_mean ([7]; with inhibitor Cyclosporin A): 63.1%; perc_recovery_b_to_a_inhibitor_mean ([7]; with inhibitor Verapamil): 96.9%
CC(C)[C@H](Nc1ncnc2[nH]c(-c3cnn(CC(N)=O)c3)cc12)c1ccc2c(c1)S(=O)(=O)CCC2 (single isomer, unassigned) [ASAP-0011428]	108.399	92.21	> 20	> 20	> 50	> 50	119.318	70.174	240.0	2.0	7.0	115.0	39.0	53.0	42.6	> 20	> 20.0	96.287	76.492	2.1	perc_remaining_no_cofactor [3, 9]: 98.0%; CC50 (iPSC pneumocytes): > 50 µM; cc10 (iPSC pneumocytes): > 50.0 µM; perc_max_measured (iPSC pneumocytes): 106.229%; perc_min_measured (iPSC pneumocytes): 92.999%; CC50 (in vitro [4]; ASAP-0008327-001=ASAP-0011428-001): > 50 µM; CC50 at 24 h (in vitro [5]): > 20 µM; solubility_mean [6]: 338 µM (≈ 167 µg/mL); papp_a_to_b_mean ([7]; mean): 1.98 ×10⁻⁶ cm/s; papp_a_to_b_mean ([7]; no inhibitor): 0.0832 ×10⁻⁶ cm/s; papp_b_to_a_mean ([7]; no inhibitor): 0.072 ×10⁻⁶ cm/s; efflux_ratio ([7]; no inhibitor): 0.9; perc_recovery_a_to_b_mean ([7]; mean): 85.9%; perc_recovery_a_to_b_mean ([7]; no inhibitor): 65.5%; perc_recovery_b_to_a_mean ([7]; no inhibitor): 72.9%; perc_recovery_a_to_b_inhibitor_mean ([7]; with inhibitor Verapamil): 73.2%; perc_recovery_b_to_a_inhibitor_mean ([7]; with inhibitor Verapamil): 79.8%
